# Experimental data taken from patent US11414431B2, “Substituted pyrazolo[1,5-a]pyrimidines as TYK2 inhibitors” (Nimbus Lakshmi, Inc., priority 2018, dated 2022).
# Test system: IL-12 induced STAT4 phosphorlyation mediated by TYK2/JAK2
# Assay: IL-12 Induced pSTAT4 in Human PBMC
# Type: cell-based
# Details: 1.7 ng/mL IL-12 for 30 minutes
# Description: Human PBMC were isolated from buffy coat and are stored frozen for assays as needed. […] 15 μL of compound or DMSO was added to the well at the desired concentrations and incubated at 1 hr at 37° C. 15 μL of stimulus (final concentration of 1.7 ng/mL IL-12) was added for 30 minutes prior to pSTAT4 and total STAT4 analysis using cell lysates prepared and analyzed by MSD reagents as per manufacturer protocol. The final DMSO concentration of compound in the assay was 0.1%.
# The IL-12 induced pSTAT4 assay evaluates the inhibition of IL-12 induced STAT4 phosphorlyation mediated by TYK2/JAK2 (heterpdimeric complex).
row,SMILES,IC50
1,CNc1cc(Nc2cccn([C@H]3CCC[C@@](C)(O)C3)c2=O)nc2c(C(=O)N[C@@H]3C[C@@H]3F)cnn12 [Compound I-129],< 0.1 µM
2,CNc1cc(Nc2cccn([C@H]3C[C@H](F)C3)c2=O)nc2c(C(=O)NC3CCC3(F)F)cnn12 (stereo partly drawn) [Compound I-283],< 0.1 µM
3,CNc1cc(-c2cn(CC(=O)N(C)C)c3ncccc23)nc2c(C(=O)N[C@H]3CC[C@@H]3OC)cnn12 [Compound I-921],< 0.1 µM
4,CNc1cc(Nc2cccn([C@@H]3CCC[C@H](C#N)C3)c2=O)nc2c(C(=O)NC3CCC3(F)F)cnn12 (stereo partly drawn) [Compound I-327],< 0.1 µM
5,CNc1cc(-c2cn(C3CCOCC3)c3ncccc23)nc2c(C(=O)N[C@H]3CCC3(F)F)cnn12 [Compound I-699],< 0.1 µM
6,CNc1cc(-c2cn([C@H]3COC[C@@H]3OC)c3ccccc23)nc2c(C(=O)N[C@H]3CC[C@H]3O)cnn12 [Compound I-790],< 0.1 µM
7,CNc1cc(Nc2cccn([C@H]3C[C@@H](OC)C3)c2=O)nc2c(C(=O)NC3CC[C@@H]3F)cnn12 (mixture of isomers) [Compound I-173],< 0.1 µM
8,CNc1cc(Nc2cccn(C3CCOCC3)c2=O)nc2c(C(=O)N[C@@H]3CC[C@H]3F)cnn12 [Compound I-190],< 0.1 µM
9,CNc1cc(Nc2cccn([C@@H]3CCCC[C@@H]3O)c2=O)nc2c(C(=O)N[C@@H]3CC[C@H]3F)cnn12 [Compound I-211],< 0.1 µM
10,CNc1cc(-c2cn(C3CN(C)C3)c3ncccc23)nc2c(C(=O)NC3CCC3(F)F)cnn12 (stereo not drawn) [Compound I-676],< 0.1 µM
11,CNc1cc(Nc2cccn([C@@H]3CCC[C@](C)(OC)C3)c2=O)nc2c(C(=O)N[C@@H]3C[C@@H]3F)cnn12 [Compound I-131],< 0.1 µM
12,CNc1cc(Nc2cccn([C@@H]3CCC[C@](C)(OC)C3)c2=O)nc2c(C(=O)NC3CC3)cnn12 [Compound I-124],< 0.1 µM
13,CNc1cc(-c2cn([C@@H]3CCOC[C@H]3O)c3ncccc23)nc2c(C(=O)N[C@H]3CC[C@@H]3F)cnn12 [Compound I-538],< 0.1 µM
14,CNc1cc(Nc2cccn(-c3ccccn3)c2=O)nc2c(C(=O)N[C@@H]3CCC3(F)F)cnn12 [Compound I-320],< 0.1 µM
15,CNc1cc(-c2cn([C@@H]3COC[C@H]3OC)c3ncccc23)nc2c(C(=O)NC3CC[C@H]3O)cnn12 (stereo partly drawn) [Compound I-587],0.5 to 1 µM
16,CNc1cc(-c2cnc3n([C@H]4COC[C@@H]4O)cccc2-3)nc2c(C(=O)N[C@@H]3CC[C@H]3OC)cnn12 [Compound I-878],< 0.1 µM
17,CNc1cc(-c2cn([C@@H]3CCOC[C@@H]3OC)c3ncccc23)nc2c(C(=O)NC3CCC3(F)F)cnn12 (stereo partly drawn) [Compound I-702],< 0.1 µM
18,CNc1cc(-c2cn([C@H]3CC3(F)F)c3ncccc23)nc2c(C(=O)N[C@H]3CC[C@H]3O)cnn12 [Compound I-552],< 0.1 µM
19,CNc1cc(-c2cn([C@@H]3COC[C@@H]3F)c3ncccc23)nc2c(C(=O)N[C@H]3CC[C@H]3O)cnn12 [Compound I-571],< 0.1 µM
20,CNc1cc(Nc2cccn([C@H]3CCC[C@H](OC)C3)c2=O)nc2c(C(=O)N[C@H]3CC[C@@H]3F)cnn12 [Compound I-231],< 0.1 µM
21,CNc1cc(Nc2cccn([C@H]3CCCOC3)c2=O)nc2c(C(=O)N[C@@H]3CCC3(F)F)cnn12 [Compound I-314],< 0.1 µM
22,CNc1cc(-c2cnc3n([C@@H]4CN(C)C[C@H]4OC)cccc2-3)nc2c(C(=O)N[C@H]3CC[C@@H]3OC)cnn12 [Compound I-944],< 0.1 µM
23,CNc1cc(-c2cn([C@H]3CC(=O)N(C4CCOCC4)C3)c3ncccc23)nc2c(C(=O)NC3CC[C@@H]3OC)cnn12 (stereo partly drawn) [Compound I-1027],0.1 to 0.5 µM
24,CNc1cc(Nc2cccn([C@H]3C[C@@H](OC)C3)c2=O)nc2c(C(=O)NC3CC[C@@H]3OC)cnn12 (stereo partly drawn) [Compound I-780],< 0.1 µM
25,CNc1cc(Nc2cccn([C@@H]3C[C@H]3OC)c2=O)nc2c(C(=O)N[C@H]3CC[C@@H]3F)cnn12 [Compound I-155],< 0.1 µM

row,SMILES,IC50
1,CNc1cc(-c2cn([C@@H]3COC[C@H]3OC)c3ccccc23)nc2c(C(=O)N[C@H]3CC[C@H]3O)cnn12 [Compound I-787],< 0.1 µM
2,CNc1cc(Nc2cccn(C(C)C)c2=O)nc2c(C(=O)NC3CC[C@@H]3F)cnn12 (mixture of isomers) [Compound I-145],< 0.1 µM
3,CNc1cc(Nc2cccn([C@H]3CCCC[C@H]3O)c2=O)nc2c(C(=O)NC3CC[C@@H]3F)cnn12 (stereo partly drawn) [Compound I-212],0.1 to 0.5 µM
4,CNc1cc(-c2cn(C3CCCC3)c3ncccc23)nc2c(C(=O)NC3CCC3(F)F)cnn12 (stereo not drawn) [Compound I-680],< 0.1 µM
5,CNc1cc(-c2cnc3n([C@H]4COC[C@@H]4OC)cccc2-3)nc2c(C(=O)NC3CC[C@@H]3OC)cnn12 (stereo partly drawn) [Compound I-880],< 0.1 µM
6,CNc1cc(-c2cn([C@H]3COC[C@H]3F)c3ncccc23)nc2c(C(=O)N[C@H]3CC[C@H]3O)cnn12 [Compound I-574],< 0.1 µM
7,CNc1cc(-c2cn([C@H]3CC(=O)N(C)C3)c3ncccc23)nc2c(C(=O)N[C@H]3CC[C@@H]3OC)cnn12 [Compound I-1024],< 0.1 µM
8,CNc1cc(-c2cn([C@@H]3CC3(F)F)c3ncccc23)nc2c(C(=O)N[C@@H]3COC[C@@H]3O)cnn12 [Compound I-713],0.1 to 0.5 µM
9,CNc1cc(-c2cnc3n([C@@H]4COC[C@H]4OC)cccc2-3)nc2c(C(=O)N[C@@H]3CC[C@@H]3O)cnn12 [Compound I-867],0.1 to 0.5 µM
10,CNc1cc(-c2cn([C@H]3CCOC[C@H]3OC)c3ncccc23)nc2c(C(=O)N[C@H]3CC[C@@H]3F)cnn12 [Compound I-796],< 0.1 µM
11,CNc1cc(-c2cn(C3COC3)c3ncccc23)nc2c(C(=O)N[C@H]3CC[C@H]3O)cnn12 [Compound I-555],< 0.1 µM
12,CNc1cc(Nc2cccn([C@@H]3CCOC[C@@H]3OC)c2=O)nc2c(C(=O)N[C@@H]3CC[C@@H]3F)cnn12 [Compound I-235],< 0.1 µM
13,CNc1cc(-c2cn([C@H]3COC[C@@H]3OC)c3ncccc23)nc2c(C(=O)N[C@H]3CC[C@H]3F)cnn12 [Compound I-529],< 0.1 µM
14,CNc1cc(Nc2cccn(C3CCOCC3)c2=O)nc2c(C(=O)NC3CCC3(F)F)cnn12 (stereo not drawn) [Compound I-309],< 0.1 µM
15,CNc1cc(Nc2cccn([C@H]3CCCOC3)c2=O)nc2c(C(=O)NC3CCC3(F)F)cnn12 (stereo partly drawn) [Compound I-312],< 0.1 µM
16,CNc1cc(Nc2cccn(-c3ccc(C)nc3)c2=O)nc2c(C(=O)NC3CCC3(F)F)cnn12 (stereo not drawn) [Compound I-324],< 0.1 µM
17,CNc1cc(Nc2cccn(C(C)C)c2=O)nc2c(C(=O)N[C@@H]3CC[C@H]3F)cnn12 [Compound I-147],< 0.1 µM
18,CNc1cc(Nc2cccn([C@H]3[C@@H]4COC[C@@H]43)c2=O)nc2c(C(=O)N[C@@H]3CC[C@H]3OC)cnn12 [Compound I-262],< 0.1 µM
19,CNc1cc(-c2cnc3n([C@H]4COC[C@@H]4OC)cccc2-3)nc2c(C(=O)N[C@@H]3CC[C@H]3OC)cnn12 [Compound I-881],< 0.1 µM
20,CNc1cc(-c2cnc3n([C@@H]4CN(C)C[C@H]4OC)cccc2-3)nc2c(C(=O)NC3CC[C@@H]3OC)cnn12 (stereo partly drawn) [Compound I-943],< 0.1 µM
21,CNc1cc(-c2cn([C@H]3CC3(F)F)c3ncccc23)nc2c(C(=O)NC3COC[C@H]3O)cnn12 (stereo partly drawn) [Compound I-709],0.1 to 0.5 µM
22,CNc1cc(Nc2cccn([C@H]3CCC[C@@H](C#N)C3)c2=O)nc2c(C(=O)N[C@@H]3CC[C@H]3OC)cnn12 [Compound I-258],< 0.1 µM
23,CNc1cc(-c2cn(C3COC3)c3ncccc23)nc2c(C(=O)NC3CCC3(F)F)cnn12 (stereo not drawn) [Compound I-673],< 0.1 µM
24,CNc1cc(-c2cnc3n([C@@H]4CCOC4)cccc2-3)nc2c(C(=O)N[C@H]3CC[C@@H]3OC)cnn12 [Compound I-1004],< 0.1 µM

# Same assay, conditions: 0.5 h, 1.7 ng/mL IL-12 for 30 minutes
row,SMILES,IC50
1,"CNc1cc(-c2cn([C@@H]3CC(=O)N(C4CCOCC4)C3)c3ncccc23)nc2c(C(=O)NC3CC[C@@H]3OC)cnn12 (stereo partly drawn) [Compound I-1026, N-(2-methoxycyclobutyl)-7-(methylamino)-5-(1-((R)-5-oxo-1-(tetrahydro-2H-pyran-4-yl)pyrrolidin-3-yl)-1H-pyrrolo[2,3-b]pyridin-3-yl)pyrazolo[1,5-a]pyrimidine-3-carboxamide]",0.1 to 0.5 µM
2,"CNc1cc(Nc2cccn(-c3ccc(C)nc3)c2=O)nc2c(C(=O)N[C@@H]3C[C@H]3OC)cnn12 [Compound I-34, N-((1R,2R)-2-Methoxycyclopropyl)-5-((6′-methyl-2-oxo-2H-[1,3′-bipyridin]-3-yl)amino)-7-(methylamino)pyrazolo[1,5-a]pyrimidine-3-carboxamide]",< 0.1 µM
3,"CNc1cc(-c2cn(CC(=O)N3CCC3)c3ncccc23)nc2c(C(=O)NC3CC[C@@H]3OC)cnn12 (stereo in doubt) [Compound I-928, 5-(1-(2-(azetidin-1-yl)-2-oxoethyl)-1H-pyrrolo[2,3-b]pyridin-3-yl)-N-(2-methoxycyclobutyl)-7-(methylamino)pyrazolo[1,5-a]pyrimidine-3-carboxamide]",0.1 to 0.5 µM
4,"CNc1cc(-c2cnc3n([C@@H]4CCOC[C@@H]4F)cccc2-3)nc2c(C(=O)NC3CC[C@H]3O)cnn12 (stereo partly drawn) [Compound I-939, 5-(7-((3R,4R)-3-fluorotetrahydro-2H-pyran-4-yl)-7H-pyrrolo[2,3-b]pyridin-3-yl)-N-((cis-1,2)-2-hydroxycyclobutyl)-7-(methylamino)pyrazolo[1,5-a]pyrimidine-3-carboxamide]",0.1 to 0.5 µM
5,"CO[C@@H]1CCC1NC(=O)c1cnn2c3c(c(Nc4cccn(C(C)C)c4=O)nc12)OCCN3 (stereo in doubt) [Compound I-759, 5-((1-Isopropyl-2-oxo-1,2-dihydropyridin-3-yl)amino)-N-(2-methoxycyclobutyl)-2,3-dihydro-1H-pyrazolo[5′,1′:2,3]pyrimido[5,4-b][1,4]oxazine-7-carboxamide]",< 0.1 µM
